Laboratory results: PMC8508980, “Design, Synthesis and Anticancer Profile of New 4-(1H-benzo[d]imidazol-1-yl)pyrimidin-2-amine-Linked Sulfonamide Derivatives with V600EBRAF Inhibitory Effect” (International Journal of Molecular Sciences, 2021)

Assays:
Type in all cases: cell-based, human
breast cancer cell lines = assay: NCI 60 screen, sub-panel mean; conditions: NCI-60, breast cancer sub-panel
Description: (§1) Anticancer profiling over a panel of 60 cancer cell lines was carried out at the National Cancer Institute (NCI), Bethesda, Maryland, USA, https://dtp.cancer.gov/discovery_development/nci-60/methodology.htm (Last visit 22 September 2021), using the standard procedure (detailed procedure is located in the Supplementary Information page 50 s).
(§2) NCI standard procedure for 60 cell lines assay
(§3) The human tumor cell lines of the cancer screening panel are grown in RPMI 1640 mediu m containing 5% fetal bovine serum and 2 mM L-glutamine. For a typical screening experiment, cells are inoculated into 96 well microtiter plates in 100 μL at plating densities ranging from 5,000 to 40,000 cells/well depending on the doubling time of individual cell lines. After cell inoculation, the microtiter plates are incubated at 37° C, 5 % CO2, 95 % air and 100 % relative humidity for 24 h prior to addition of experimental drugs.
(§4) After 24 h, two plates of each cell line are fixed in situ with TCA, to represent a measurement of the cell population for each cell line at the time of drug addition (Tz). Experimental drugs are solubilized in dimethyl sulfoxide at 400-fold the desired final maximum test concentration (10 µM) and stored frozen prior to use. At the time of drug addition, an aliquot of frozen concentrate is thawed and diluted to twice the desired final maximum test concentration with co mp lete medium containing 50 μg/ml gentamicin. Additional four, 10-fold or ½ log serial dilutions are made to provide a total of five drug concentrations plus control. Aliquots of 100 μl of these different drug dilutions are added to the appropriate microtiter wells already containing 100 μl of medium, resulting in the required final drug concentrations.
(§5) Following drug addition, the plates are incubated for an additional 48 h at 37°C, 5 % CO2, 95 % air, and 100 % relative humidity. For adherent cells, the assay is terminated by the addition of cold TCA. Cells are fixed in situ by the gentle addition of 50 μl of cold 50 % (w/v) TCA (final concentration, 10 % TCA) and incubated for 60 minutes at 4°C. The supernatant is discarded, and the plates are washed five times with tap water and air dried. Sulforhodamine B (SRB) solution (100 μl) at 0.4 % (w/v) in 1 % acetic acid is added to each well, and plates are incubated for 10 minutes at room temperature. After staining, unbound dye is removed by washing five times with 1 % acetic acid and the plates are air dried. Bound stain is subsequently solubilized with 10 mM trizma base, and the absorbance is read on an automated plate reader at a wavelength of 515 nm. For suspension cells, the methodology is the same except that the assay is terminated by fixing settled cells at the bottom of the wells by g ently adding 50 μl of 80 % TCA (final concentration, 16 % TCA). Using the seven absorbance measurements [time zero, (Tz), control growth, (C), and test growth in the presence of drug at the five concentration levels (Ti)], the percentage growth is calculated at each of the drug concentrations levels. Percentage growth inhibition is calculated as:
(§6) [(Ti-Tz)/(C-Tz)] x 100 for concentrations for which Ti>/=Tz
(§7) [(Ti-Tz)/Tz] x 100 for concentrations for which Ti<Tz.
(§8) Three dose response parameters are calculated for each experimental agent. Growth inhibition of […]
(§9) resulting in a 50% reduction in the net protein increase (as measured by SRB staining) in control cells during the drug incubation. The drug concentration resulting in total growth inhibition […]
(§10) (TGI) is calculated from Ti = Tz.

[1] = system: ovarian cancer cell lines; assay: NCI 60 screen, sub-panel mean; conditions: NCI-60, ovarian cancer sub-panel
Description: as §1, §2, §3, §4, §5, §6, §7, §8, §9, §10

[2] = system: prostate cancer cell lines; assay: NCI 60 screen, sub-panel mean; conditions: NCI-60, prostate cancer sub-panel
Description: as §1, §2, §3, §4, §5, §6, §7, §8, §9, §10

leukemia cell lines = assay: NCI 60 screen, sub-panel mean; conditions: NCI-60, leukemia sub-panel
Description: as §1, §2, §3, §4, §5, §6, §7, §8, §9, §10

HCT-15 = assay: NCI 60 cell line screen; conditions: for activity at 10 µM: Homo sapiens, HCT-15, Colon Cancer, read-out: Percent growth
How it was run: (§11)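 Growth inhibition is expressed as percent growth versus time-zero and vehicle controls, from SRB absorbance at 515 nm. Compounds span five concentrations (max 10 µM) for 48 h in RPMI 1640 with 5% serum. TGI corresponds to Ti = Tz.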

NCI-H460 = assay: NCI 60 cell line screen; conditions: for activity at 10 µM: Homo sapiens, NCI-H460, Non-Small Cell Lung Cancer, read-out: Percent growth
How it was run: as §11

SK-MEL-5 = assay: NCI 60 cell line screen; conditions: for activity at 10 µM: Homo sapiens, SK-MEL-5, Melanoma, read-out: Percent growth; for percent inhibition: SK-MEL-5, NCI-60 heat map analysis
How it was run: (§12)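 Five-dose sulforhodamine B growth assay: 48 h treatment (top concentration 10 µM) following 24 h plating, with protein mass quantified at 515 nm. GI50 reflects 50% reduction of net protein increase over control; TGI is the concentration giving no net growth.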

UO-31 = assay: NCI 60 cell line screen; conditions: for activity at 10 µM: Homo sapiens, UO-31, Renal Cancer, read-out: Percent growth
How it was run: as §11

RPMI-8226 = assay: NCI 60 cell line screen; conditions: for activity at 10 µM: Homo sapiens, RPMI-8226, Leukemia, read-out: Percent growth; for percent inhibition: RPMI-8226, NCI-60 heat map analysis
How it was run: as §12

CAKI-1 = assay: NCI 60 cell line screen; conditions: Homo sapiens; CAKI-1, Renal Cancer; read-out: Percent growth
How it was run: as §11

EKVX = assay: NCI 60 cell line screen; conditions: for activity at 10 µM: Homo sapiens, Non-Small Cell Lung Cancer, read-out: Percent growth
How it was run: as §11

PC-3 = assay: NCI 60 cell line screen; conditions: for activity at 10 µM: Homo sapiens, PC-3, Prostate Cancer, read-out: Percent growth
How it was run: as §11

MOLT-4 = assay: NCI 60 cell line screen; conditions: for activity at 10 µM: Homo sapiens, MOLT-4, Leukemia, read-out: Percent growth; for percent inhibition: MOLT-4, NCI-60 heat map analysis
How it was run: as §12

NCI/ADR-RES = assay: NCI 60 cell line screen; conditions: for activity at 10 µM: Homo sapiens, Ovarian Cancer, read-out: Percent growth
How it was run: as §11

HT29 = assay: NCI 60 cell line screen; conditions: Homo sapiens, HT-29; HT29, Colon Cancer; read-out: Percent growth
How it was run: as §11

KM12 = assay: NCI 60 cell line screen; conditions: for activity at 10 µM: Homo sapiens, KM12, Colon Cancer, read-out: Percent growth; for percent inhibition: KM12, NCI-60 heat map analysis
How it was run: as §12

MDA-MB-468 = assay: NCI 60 cell line screen; conditions: for activity at 10 µM: Homo sapiens, MDA-MB-468, Breast Cancer, read-out: Percent growth; for percent inhibition: MDA-MB-468, NCI-60 heat map analysis
How it was run: as §12

HOP-92 = assay: NCI 60 cell line screen; conditions: for activity at 10 µM: Homo sapiens, HOP-92, Non-Small Cell Lung Cancer, read-out: Percent growth; for percent inhibition: HOP-92, NCI-60 heat map analysis
How it was run: as §12

NCI-H522 = assay: NCI 60 cell line screen; conditions: for activity at 10 µM: Homo sapiens, NCI-H522, Non-Small Cell Lung Cancer, read-out: Percent growth
How it was run: as §11

SNB-75 = assay: NCI 60 cell line screen; conditions: for activity at 10 µM: Homo sapiens, SNB-75, CNS-Cancer, read-out: Percent growth
How it was run: as §11

NCI-H23 = assay: NCI 60 cell line screen; conditions: for activity at 10 µM: Homo sapiens, NCI-H23, Non-Small Cell Lung Cancer, read-out: Percent growth
How it was run: as §11

| Structure (SMILES) | mean percent inhibition (breast cancer cell lines) | mean percent inhibition [2] | activity at 10 µM (HCT-15) | activity at 10 µM (NCI-H460) | activity at 10 µM (SK-MEL-5) | percent inhibition (SK-MEL-5) | activity at 10 µM (UO-31) | activity at 10 µM (RPMI-8226) | activity at 10 µM (CAKI-1) | activity at 10 µM (EKVX) | activity at 10 µM (PC-3) | activity at 10 µM (MOLT-4) | activity at 10 µM (NCI/ADR-RES) | activity at 10 µM (HT29) | activity at 10 µM (KM12) | activity at 10 µM (MDA-MB-468) | activity at 10 µM (HOP-92) | activity at 10 µM (NCI-H522) | activity at 10 µM (SNB-75) | activity at 10 µM (NCI-H23) | other results |
| --- | --- | --- | --- | --- | --- | --- | --- | --- | --- | --- | --- | --- | --- | --- | --- | --- | --- | --- | --- | --- | --- |
| O=S(=O)(NCCCNc1nccc(-n2cnc3ccccc32)n1)c1ccc(F)cc1 [12i, N-(3-((4-(1H-benzo [d]imidazol-1-yl)pyrimidin-2-yl)amino)propyl)-4-fluorobenzenesulfonamide] | around 40% | around 20% | 82.8% | 79.7% | 2.63% | 97% | 59.3% | 57.8% | 71% | 61.2% | 69.3% | 33.2% | 64.3% | 92.8% | 48.9% | 50.2% | 87.9% | 68.5% | 82.5% | 70.4% | mean percent inhibition [1]: around 25%; mean percent inhibition (leukemia cell lines): 50%; percent inhibition (EKVX; NCI-60 heat map analysis): around 30%; percent inhibition (KM12): around 50%; percent inhibition (NCI-H522; NCI-H522, NCI-60 heat map analysis): around 30% |
| Cc1ccc(S(=O)(=O)NCCNc2nccc(-n3cnc4ccccc43)n2)cc1 [12g, N-(2-((4-(1H-benzo [d]imidazol-1-yl)pyrimidin-2-yl)amino)ethyl)-4-methyl benzenesulfonamide] | around 40% | around 20% | 80.2% | 79% | 20.8% | 80% | 52% | 52.5% | 57.5% | 56.1% | 76.1% | 55.3% | 75.7% | 90.2% | 77.4% | 51% | 57.9% | 64.6% | 69% | 74.6% | mean percent inhibition [1]: around 25%; percent inhibition (UO-31; UO-31, NCI-60 heat map analysis): 48%; percent inhibition (RPMI-8226): around 45%; percent inhibition (MOLT-4): around 45%; percent inhibition (MDA-MB-468): 49%; percent inhibition (HOP-92): around 40% |
| O=S(=O)(NCCCNc1nccc(-n2cnc3ccccc32)n1)c1cccc2ccccc12 [12n, N-(3-((4-(1H-benzo [d]imidazol-1-yl)pyrimidin-2-yl)amino)propyl)naphthalene-1-sulfonamide] |  | around 20% | 81.8% | 89.8% | 58.8% | 40% | 60.7% | 69.7% | 60.5% | 75.1% | 66.7% | 67% | 81.1% | 96.3% | 79.8% | 76.2% | 80.2% | 70% | 87.2% | 91.3% | percent inhibition (MOLT-4): around 30% |
| O=S(=O)(NCCNc1nccc(-n2cnc3ccccc32)n1)c1ccc(C(F)(F)F)cc1 [12e, N-(2-((4-(1H-benzo [d]imidazol-1-yl)pyrimidin-2-yl)amino)ethyl)-4-(trifluoromethyl)benzenesulfonamide] | more than 60% | 40% | 60.7% | 57.8% | 8.48% | 91% | 39.9% | 44.9% | 43.1% | 34.7% | 45.5% | 45.2% | 55.9% | 68% | 58.7% | 26.4% | 54.5% | 38.2% | 46.8% | 54.5% | mean percent inhibition [1]: 40%; mean percent inhibition (leukemia cell lines): 60%; percent inhibition (HCT-15; HCT-15, NCI-60 heat map analysis): around 40%; percent inhibition (NCI-H460; NCI-H460, NCI-60 heat map analysis): around 40%; percent inhibition (RPMI-8226): 55%; percent inhibition (PC-3; PC-3, NCI-60 heat map analysis): 55%; percent inhibition (MOLT-4): 55%; percent inhibition (NCI/ADR-RES; NCI-60 heat map analysis): 45%; percent inhibition (KM12): around 40%; percent inhibition (MDA-MB-468): 74%; percent inhibition (HOP-92): around 40%; percent inhibition (SNB-75; SNB-75, NCI-60 heat map analysis): more than 50%; percent inhibition (NCI-H23; NCI-H23, NCI-60 heat map analysis): around 40% |
| O=S(=O)(NCCCNc1nccc(-n2cnc3ccccc32)n1)c1ccc(Cl)cc1 [12j, N-(3-((4-(1H-benzo [d]imidazol-1-yl)pyrimidin-2-yl)amino)propyl)-4-chloro benzenesulfonamide] |  |  | 93.1% | 99.8% | 76.2% |  | 87.2% | 78% | 94.5% | 91% | 92.5% | 82.3% | 98.2% | 104% | 92% | 93.8% | 94.6% | 82.8% | 91.7% | 97.1% |  |
